We go through 20 compounds from PubChem BioAssay AID192 (DTP/NCI, 2004).

This test has as its system BDF1 mice, B16 melanoma ip, median survival T/C. As to the kind of experiment: NCI In Vivo Anticancer Drug Screen. Data for tumor model B16 Melanoma (intraperitoneal) in B6D2F1 (BDF1) mice. To be noted: endpoint: median survival time, higher = longer survival. An outline of the steps: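 Values are ratios of treated (T) to vehicle-control (C) measurements of survival or tumor size in tumor-bearing mice.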

Where [1] appears, read: dose: 100.0 mg/kg/injection, schedule: Q01DX009 (ip), vehicle: saline with Tween-80.
Where [2] appears, read: dose: 50.0 mg/kg/injection, schedule: Q01DX009 (ip), vehicle: saline.
Where [3] appears, read: dose: 100.0 mg/kg/injection, schedule: Q01DX009 (ip), vehicle: saline.
Where [4] appears, read: dose: 200.0 mg/kg/injection, schedule: Q01DX009 (ip), vehicle: saline.
The mark [5] stands for this setting: dose: 50.0 mg/kg/injection, schedule: Q01DX009 (ip), vehicle: saline with Tween-80.
[6] abbreviates: dose: 200.0 mg/kg/injection, schedule: Q01DX009 (ip), vehicle: saline with Tween-80.
[7] abbreviates: dose: 400.0 mg/kg/injection, schedule: Q01DX009 (ip), vehicle: saline with Tween-80.
Where [8] appears, read: dose: 6.25 mg/kg/injection, schedule: Q01DX009 (ip), vehicle: saline with Tween-80.
Where [9] appears, read: dose: 6.25 mg/kg/injection, schedule: Q01DX009 (ip), vehicle: Klucel (hydroxypropylcellulose) (HPC).
Setting [10] is: dose: 12.5 mg/kg/injection, schedule: Q01DX009 (ip), vehicle: Klucel (hydroxypropylcellulose) (HPC).
The mark [11] stands for this setting: dose: 25.0 mg/kg/injection, schedule: Q01DX009 (ip), vehicle: Klucel (hydroxypropylcellulose) (HPC).
Where [12] appears, read: dose: 50.0 mg/kg/injection, schedule: Q01DX009 (ip), vehicle: Klucel (hydroxypropylcellulose) (HPC).
Where [13] appears, read: dose: 100.0 mg/kg/injection, schedule: Q01DX009 (ip), vehicle: Klucel (hydroxypropylcellulose) (HPC).
[14] abbreviates: dose: 200.0 mg/kg/injection, schedule: Q01DX009 (ip), vehicle: Klucel (hydroxypropylcellulose) (HPC).

Values joined by “and” are separate entries in the source; they are usually repeats but may differ in a detail not shown here. Equal entries are not always repeated. Inconclusive results and toxic doses are left out.

With `O=C(CC(NC(=O)OCc1ccccc1)c1nn[nH]n1)OCc1ccccc1` (centres undefined), the T/C was 99 % of control (dose: 66.0 mg/kg/injection, schedule: Q01DX009 (ip), vehicle: saline with Tween-80); 107 % of control under setting [1]; 100 % of control (dose: 150.0 mg/kg/injection, schedule: Q01DX009 (ip), vehicle: saline with Tween-80).
In the case of `OCCN1CCCN(CCCN2c3ccccc3Sc3ccc(C(F)(F)F)cc32)CC1`, the T/C is 108 % of control (dose: 0.14 mg/kg/injection, schedule: Q04DX003 (ip), vehicle: saline); 100 % of control (dose: 0.29 mg/kg/injection, schedule: Q04DX003 (ip), vehicle: saline); 98 % of control (dose: 0.58 mg/kg/injection, schedule: Q01DX009 (ip), vehicle: saline); 99 % of control (dose: 0.58 mg/kg/injection, schedule: Q04DX003 (ip), vehicle: saline); 98 % of control (dose: 1.17 mg/kg/injection, schedule: Q01DX009 (ip), vehicle: saline); 104 % of control (dose: 1.17 mg/kg/injection, schedule: Q04DX003 (ip), vehicle: saline). In addition, the T/C by setting is: (dose: 2.34 mg/kg/injection, schedule: Q01DX009 (ip), vehicle: saline) 96 % of control; (dose: 2.34 mg/kg/injection, schedule: Q04DX003 (ip), vehicle: saline) 105 % of control and 116 % of control; (dose: 4.68 mg/kg/injection, schedule: Q01DX009 (ip), vehicle: saline) 90 % of control; (dose: 4.68 mg/kg/injection, schedule: Q04DX003 (ip), vehicle: saline) 122 % of control; (dose: 9.37 mg/kg/injection, schedule: Q04DX003 (ip), vehicle: saline) 119 % of control.
For the compound `CCN(CC)CCOC(=O)CC1CCCCC1`, the T/C is 99 % of control under setting [2], 96 % of control under setting [3] and 95 % of control under setting [4].
Take `O=C(Nc1ccccc1)Nc1cccc(Cl)c1`: the T/C under setting [5] was 100 % of control, the T/C under setting [1] was 98 % of control and the T/C under setting [6] was 96 % of control.
As to `CCOc1c(Br)cc(Br)cc1C=C(C#N)C#N`, the T/C by setting is: (dose: 12.5 mg/kg/injection, schedule: Q01DX009 (ip), vehicle: other) 103 % of control; (dose: 25.0 mg/kg/injection, schedule: Q01DX009 (ip), vehicle: other) 98 % of control; (dose: 50.0 mg/kg/injection, schedule: Q01DX009 (ip), vehicle: other) 109 % of control.
`CCOc1ccccc1NC(=O)c1cc2ccccc2cc1O`: the T/C was 115 % of control under setting [3]; 118 % of control under setting [4]; 121 % of control (dose: 400.0 mg/kg/injection, schedule: Q01DX009 (ip), vehicle: saline).
`CN(C)CCOCCOC(=O)N1c2ccccc2Sc2ccccc21`: the T/C by setting is: (dose: 6.25 mg/kg/injection, schedule: Q01DX009 (ip), vehicle: saline) 102 % of control; (dose: 12.5 mg/kg/injection, schedule: Q01DX009 (ip), vehicle: saline) 112 % of control; (dose: 25.0 mg/kg/injection, schedule: Q01DX009 (ip), vehicle: saline) 116 % of control; under setting [2], 109 % of control.
On to `c1ccc(-c2nn3c(-c4ccccc4)nnc3o2)cc1`, for which the T/C is 93 % of control under setting [1], 92 % of control under setting [6] and 92 % of control under setting [7].
On to `CCCCCCCCCCCCCCCc1ccc(C(=O)C[n+]2ccccc2)cc1`, for which the T/C (dose: 3.12 mg/kg/injection, schedule: Q01DX009 (ip), vehicle: saline with Tween-80) is 102 % of control; the T/C under setting [8] is 100 % of control; the T/C (dose: 12.5 mg/kg/injection, schedule: Q01DX009 (ip), vehicle: saline with Tween-80) is 95 % of control; the T/C (dose: 25.0 mg/kg/injection, schedule: Q01DX009 (ip), vehicle: saline with Tween-80) is 93 % of control.
On to `CC1CC(C)(C)N=C(CCC2CCCC23OCCO3)O1` (centres undefined), for which the T/C was 108 % of control under setting [2] and 111 % of control under setting [3].
Turning to `Cc1nc2ccccc2nc1CI`, the T/C reads like this: (dose: 0.75 mg/kg/injection, schedule: Q01DX009 (ip), vehicle: saline with Tween-80) 106 % of control; (dose: 1.5 mg/kg/injection, schedule: Q01DX009 (ip), vehicle: saline with Tween-80) 93 % of control; (dose: 3.0 mg/kg/injection, schedule: Q01DX009 (ip), vehicle: saline with Tween-80) 106 % of control; (dose: 6.0 mg/kg/injection, schedule: Q01DX009 (ip), vehicle: saline with Tween-80) 93 % of control; under setting [8], 91 % of control.
For the compound `O=C(Oc1ccc(OC(=O)c2ccccc2)c2c1C(=O)C(CBr)=C(CBr)C2=O)c1ccccc1`, the T/C by setting is: under setting [9], 97 % of control; under setting [10], 100 % of control; under setting [11], 97 % of control; under setting [12], 101 % of control.
Consider `CC(CC#N)OC(=O)c1cccc([N+](=O)[O-])c1` (centres undefined), for which the T/C under setting [13] is 88 % of control; the T/C under setting [14] was 99 % of control; the T/C (dose: 400.0 mg/kg/injection, schedule: Q01DX009 (ip), vehicle: Klucel (hydroxypropylcellulose) (HPC)) is 91 % of control.
Take `O=[N+]([O-])c1ccc2c(c1)sc1cc([N+](=O)[O-])c(Br)cc12`: the T/C is 102 % of control under setting [5], 102 % of control under setting [1], 100 % of control under setting [6] and 90 % of control under setting [7].
For `O=C1c2ccccc2C(=O)c2c(NCCN3CCCCC3)ccc(NCCN3CCCCC3)c21`, the T/C (dose: 16.0 mg/kg/injection, schedule: Q01DX009 (ip), vehicle: acid diluted with saline) was 107 % of control.
`CC[C@](O)(C(=O)O)c1cc2n(c(=O)c1CO)Cc1cc3ccccc3nc1-2`: the T/C is 117 % of control (dose: 0.79 mg/kg/injection, schedule: Q01DX009 (ip), vehicle: other); 115 % of control and 121 % of control (dose: 1.0 mg/kg/injection, schedule: Q01DX009 (ip), vehicle: saline); 117 % of control (dose: 2.0 mg/kg/injection, schedule: Q01DX009 (ip), vehicle: saline); 150 % of control (dose: 4.0 mg/kg/injection, schedule: Q01DX009 (ip), vehicle: saline).
With `CN(C)N=Nc1cn[nH]c1C(N)=O`, the T/C reads like this: under setting [10], 110 % of control; under setting [11], 111 % of control; under setting [12], 100 % of control; under setting [13], 98 % of control; under setting [14], 96 % of control.
Take `O=[N+]([O-])c1cccc(S(=O)(=O)N2CCN(S(=O)(=O)c3cccc([N+](=O)[O-])c3)C2)c1`: the T/C is, setting by setting: (dose: 100.0 mg/kg/injection, schedule: Q04DX003 (ip), vehicle: Klucel (hydroxypropylcellulose) (HPC)) 109 % of control; (dose: 200.0 mg/kg/injection, schedule: Q04DX003 (ip), vehicle: Klucel (hydroxypropylcellulose) (HPC)) 102 % of control; (dose: 400.0 mg/kg/injection, schedule: Q04DX003 (ip), vehicle: Klucel (hydroxypropylcellulose) (HPC)) 94 % of control.
As to `CC(C)NNC(=O)c1ccc(Cl)cc1`, the T/C runs as follows: under setting [9], 89 % of control; under setting [10], 92 % of control; under setting [11], 89 % of control; under setting [12], 94 % of control; under setting [13], 107 % of control.
As for `COc1cc(NCc2ccc3nc(N)nc(N)c3c2C)cc(OC)c1OC`, the T/C reads like this: (dose: 0.62 mg/kg/injection, schedule: Q01DX009 (ip), vehicle: sodium bicarbonate) 104 % of control; (dose: 1.25 mg/kg/injection, schedule: Q01DX009 (ip), vehicle: sodium bicarbonate) 101 % of control and 117 % of control; (dose: 2.5 mg/kg/injection, schedule: Q01DX009 (ip), vehicle: sodium bicarbonate) 107 % of control and 124 % of control; (dose: 5.0 mg/kg/injection, schedule: Q01DX009 (ip), vehicle: sodium bicarbonate) 124 % of control; (dose: 10.0 mg/kg/injection, schedule: Q01DX009 (ip), vehicle: sodium bicarbonate) 155 % of control; (dose: 20.0 mg/kg/injection, schedule: Q01DX009 (ip), vehicle: sodium bicarbonate) 150 % of control and 164 % of control.
